{"source": "patent US6537576B1", "about": "“Biologically active composition” (Bioglan AB, priority 1998, dated 2003)", "assay": "Solubility of piroxicam in PEG400 (HPLC)", "type": "physicochemical", "details": "piroxicam in PEG400, excess stirred 2 weeks at room temperature, HPLC analysis"}
{"smiles": "CN1C(C(=O)Nc2ccccn2)=C(O)c2ccccc2S1(=O)=O", "note": "[piroxicam]", "values": [{"measurement": "solubility", "value": 1.6, "unit": "%"}]}
